Results from publication PMC11855827, “High-Throughput Screening of Five Compound Libraries for Anthelmintic Activity and Toxicity Leads to the Discovery of Two Flavonoid Compounds” (International Journal of Molecular Sciences, 2025).
Where “and” joins values, the source holds several entries; their conditions need not be identical. Equal entries are not always repeated. Where two headings read alike, the source gives them in different places.

Tested on: C. elegans
[1] = Table S2, C. elegans SS assay, 110 μM, 0 h, averages of 4 data points
[2] = Table S2, C. elegans SS assay, 110 μM, 24 h, averages of 4 data points

Compound: COC(=O)C1=COC(O[C@@H]2O[C@H](CO)[C@@H](O)[C@H](O)[C@H]2O)/C(=C/C(=O)O)C1CC(=O)OCCc1ccc(O)cc1 (some centres unmarked) [Ligustrosidic acid]
- Percentage of motility inhibition 0 h [1]: 3%
- Percentage of motility inhibition 24 h [2]: 24%

Compound: C[C@H](CC[C@@H](O[C@@H]1O[C@H](CO)[C@@H](O)[C@H](O)[C@H]1O)C(C)(C)O)[C@H]1CC[C@@]2(C)[C@@H]3CC=C4[C@@H](CC[C@H](O[C@@H]5O[C@H](CO)[C@@H](O)[C@H](O)[C@H]5O)C4(C)C)[C@]3(C)[C@H](O)C[C@]12C [Mogroside IIe]
- Percentage of motility inhibition 0 h [1]: 0%
- Percentage of motility inhibition 24 h [2]: 7%

Compound: N#C[C@@H](O[C@@H]1O[C@H](CO[C@@H]2O[C@H](CO)[C@@H](O)[C@H](O)[C@H]2O)[C@@H](O)[C@H](O)[C@H]1O)c1ccccc1 [Neoamygdalin]
- Percentage of motility inhibition 0 h [1]: 0%
- Percentage of motility inhibition 24 h [2]: 0%

Compound: CC(C)(C)NC(=O)[C@@H]1C[C@@H]2CCCC[C@@H]2CN1C[C@@H](O)[C@H](Cc1ccccc1)NC(=O)[C@H](CC(N)=O)NC(=O)c1ccc2ccccc2n1.CS(=O)(=O)O [Saquinavir (Mesylate)]
- Percentage of motility inhibition 0 h [1]: 0%
- Percentage of motility inhibition 24 h [2]: 10%

Compound: CCc1c2c(nc3ccc(OC(=O)N4CCC(N5CCCCC5)CC4)cc13)-c1cc3c(c(=O)n1C2)COC(=O)[C@]3(O)CC.Cl [Irinotecan (hydrochloride)]
- Percentage of motility inhibition 0 h [1]: 0%
- Percentage of motility inhibition 24 h [2]: 11%

Compound: CC(C)=CC/C=C(\C)[C@H]1CC[C@]2(C)[C@@H]1[C@H](O)C[C@@H]1[C@@]3(C)C[C@@H](O)[C@H](O[C@@H]4O[C@H](CO)[C@@H](O)[C@H](O)[C@H]4O[C@@H]4O[C@H](CO)[C@@H](O)[C@H](O)[C@H]4O)C(C)(C)[C@@H]3CC[C@]12C [Damulin A]
- Percentage of motility inhibition 0 h [1]: 5%
- Percentage of motility inhibition 24 h [2]: 0%

Compound: CC(=O)O[C@H]1C(=O)[C@@]2(C)[C@H]([C@H](OC(=O)c3ccccc3)[C@]3(O)C[C@H](OC(=O)[C@H](O)[C@@H](NC(=O)c4ccccc4)c4ccccc4)C(C)=C1C3(C)C)[C@]1(OC(C)=O)CO[C@@H]1C[C@@H]2O [7-epi-Taxol]
- Percentage of motility inhibition 0 h [1]: 13%
- Percentage of motility inhibition 24 h [2]: 11%

Compound: CC12CCC(CC1=O)C2(C)C (stereo not drawn) [(+)‐Camphor]
- Percentage of motility inhibition 0 h [1]: 31%
- Percentage of motility inhibition 24 h [2]: 1%

Compound: Tannic acid
- Percentage of motility inhibition 0 h [1]: 3%
- Percentage of motility inhibition 24 h [2]: 15%

Compound: COc1ccc2cc3[n+](cc2c1OC)CCc1cc(O)c(O)cc1-3.[Cl-] [Demethyleneberberine (chloride)]
- Percentage of motility inhibition 0 h [1]: 0%
- Percentage of motility inhibition 24 h [2]: 13%

Compound: COc1cc2c(cc1OC)-c1cc3ccc(OC)c(OC)c3c[n+]1CC2.[OH-] [Palmatine (hydroxide)]
- Percentage of motility inhibition 0 h [1]: 1%
- Percentage of motility inhibition 24 h [2]: 0%

Compound: CCC1=C[C@@H]2CN3CCc4c([nH]c5ccccc45)[C@@](C(=O)OC)(C2)[C@@H]13 [Catharanthine]
- Percentage of motility inhibition 0 h [1]: 0%
- Percentage of motility inhibition 24 h [2]: 0%

Compound: O=C(O)c1cc(=O)c2ccccc2[nH]1 [Kynurenic acid]
- Percentage of motility inhibition 0 h [1]: 17%
- Percentage of motility inhibition 24 h [2]: 0%

Compound: C=C1c2cccc(O)c2C(=O)C2=C(O)[C@]3(O)C(=O)C(C(N)=O)=C(O)[C@@H](N(C)C)[C@@H]3[C@@H](O)[C@H]12.Cl [Methacycline (hydrochloride)]
- Percentage of motility inhibition 0 h [1]: 17%
- Percentage of motility inhibition 24 h [2]: 20%

Compound: C[C@H]1CC[C@@H]2N(C1)C[C@H]1[C@@H]3C[C@H]4[C@@H](CC(=O)[C@H]5C[C@@H](O[C@@H]6O[C@H](CO)[C@@H](O)[C@H](O)[C@H]6O)CC[C@@]54C)[C@@H]3CC[C@H]1[C@]2(C)O [Imperialine 3‐β‐D‐glucoside]
- Percentage of motility inhibition 0 h [1]: 10%
- Percentage of motility inhibition 24 h [2]: 10%

Compound: 4'‐O‐Methylbavachalcone
- Percentage of motility inhibition 0 h [1]: 19%
- Percentage of motility inhibition 24 h [2]: 3%

Compound: O.O.O=C([O-])CC(O)(CC(=O)[O-])C(=O)[O-].[Na+].[Na+].[Na+] [Sodium citrate (dihydrate)]
- Percentage of motility inhibition 0 h [1]: 32%
- Percentage of motility inhibition 24 h [2]: 2%

Compound: CC(=O)OC[C@H]1O[C@@H](OC[C@H]2O[C@@H](OC(=O)[C@]34CCC(C)(C)C[C@H]3C3=CC[C@@H]5[C@@]6(C)CC[C@H](O[C@@H]7OC[C@H](O)[C@H](O)[C@H]7O[C@@H]7O[C@H](CO)[C@@H](O)[C@H](O)[C@H]7O)C(C)(C)[C@@H]6CC[C@@]5(C)[C@]3(C)CC4)[C@H](O)[C@@H](O)[C@@H]2O)[C@H](O)[C@@H](O)[C@@H]1O[C@@H]1O[C@@H](C)[C@H](O)[C@@H](O)[C@H]1O [Acanthopanaxoside B]
- Percentage of motility inhibition 0 h [1]: 0%
- Percentage of motility inhibition 24 h [2]: 0%

Compound: C[C@@H]1O[C@@H](O[C@H]2[C@H](O[C@H]3CC[C@@]4(C)[C@@H](CC[C@]5(C)[C@@H]4CC=C4[C@@H]6CC(C)(C)CC[C@]6(C(=O)O[C@@H]6O[C@H](CO[C@@H]7O[C@H](CO)[C@@H](O[C@@H]8O[C@@H](C)[C@H](O)[C@@H](O)[C@H]8O)[C@H](O)[C@H]7O)[C@@H](O)[C@H](O)[C@H]6O)CC[C@]45C)[C@]3(C)CO)OC[C@H](O)[C@@H]2O)[C@H](O)[C@H](O)[C@H]1O [Hederacoside C]
- Percentage of motility inhibition 0 h [1]: 18%
- Percentage of motility inhibition 24 h [2]: 0%

Compound: CC1(C)CCC[C@]2(C)[C@H]3CCO[C@]3(C)CC[C@@H]12 [Ambroxide]
- Percentage of motility inhibition 0 h [1]: 8%
- Percentage of motility inhibition 24 h [2]: 14%

Compound: CC1(C)S[C@@H]2[C@H](NC(=O)Cc3ccccc3)C(=O)N2[C@H]1C(=O)[O-].[K+] [Penicillin G (potassium)]
- Percentage of motility inhibition 0 h [1]: 14%
- Percentage of motility inhibition 24 h [2]: 8%

Compound: C[C@H]1CC[C@@H]2N(C1)C[C@H]1[C@@H]3C[C@H]4[C@@H](CC(=O)[C@H]5C[C@@H](O)CC[C@@]54C)[C@@H]3CC[C@H]1[C@]2(C)O [Sipeimine]
- Percentage of motility inhibition 0 h [1]: 0%
- Percentage of motility inhibition 24 h [2]: 9%

Compound: Cl.Cl.NCCc1c[nH]cn1 [Histamine (dihydrochloride)]
- Percentage of motility inhibition 0 h [1]: 0%
- Percentage of motility inhibition 24 h [2]: 3%

Compound: C=C1C(=O)O[C@@H]2[C@H]3C(CO)=CC(=O)C3=C(C)C[C@H](OC(=O)Cc3ccc(O)cc3)[C@@H]12 [Lactupicrin]
- Percentage of motility inhibition 0 h [1]: 7%
- Percentage of motility inhibition 24 h [2]: 25%

Compound: (±)-Huperzine A
- Percentage of motility inhibition 0 h [1]: 0%
- Percentage of motility inhibition 24 h [2]: 16%

Compound: COc1cc(/C=C/C(=O)O[C@H]2[C@H](O)[C@@H](CO)O[C@@]2(CO)O[C@H]2O[C@H](COC(=O)c3ccc(O)cc3)[C@@H](O)[C@H](O)[C@H]2O)cc(OC)c1OC [Tenuifoliside A]
- Percentage of motility inhibition 0 h [1]: 0%
- Percentage of motility inhibition 24 h [2]: 15%

Compound: COc1ccc(-c2cc(=O)c3c(OC)c(OC)c(OC)c(OC)c3o2)cc1O [3'‐Demethylnobiletin]
- Percentage of motility inhibition 0 h [1]: 0%
- Percentage of motility inhibition 24 h [2]: 0%

Compound: Corylin
- Percentage of motility inhibition 0 h [1]: 25%
- Percentage of motility inhibition 24 h [2]: 15%

Compound: CC[C@H]1CN2CC[C@H]1C[C@@H]2[C@@H](O)c1ccnc2ccc(OC)cc12 [Hydroquinidine]
- Percentage of motility inhibition 0 h [1]: 29% and 50%

Compound: COc1cc2oc3cc(O)c(OC)c(CC=C(C)C)c3c(=O)c2c(O)c1CC=C(C)C [beta‐Mangostin]
- Percentage of motility inhibition 0 h [1]: 30%
- Percentage of motility inhibition 24 h [2]: 0%

Compound: C=C1CC[C@@]2(C)[C@H]([C@@H]1C)[C@H]1CC[C@@H]3[C@@]4(C)CC[C@H](O)C(C)(C)[C@@H]4CC[C@@]3(C)[C@]1(C)C[C@@H]2O [Arnidiol]
- Percentage of motility inhibition 0 h [1]: 12%
- Percentage of motility inhibition 24 h [2]: 57%

Compound: COc1cc2c(cc1O)C1Cc3ccc(OC)c(O)c3C[N+]1(C)CC2.[Cl-] (centres unmarked) [Cyclanoline (chloride)]
- Percentage of motility inhibition 0 h [1]: 7%
- Percentage of motility inhibition 24 h [2]: 12%

Compound: CC(=O)O[C@@H]1CC[C@@]2(C)[C@@H](CC[C@]3(C)[C@@H]2C(=O)C=C2[C@@H]4[C@@H](C)[C@H](C)CC[C@]4(C)CC[C@]23C)[C@@]1(C)C(=O)O [AKBA]
- Percentage of motility inhibition 0 h [1]: 0%
- Percentage of motility inhibition 24 h [2]: 6%

Compound: Cn1cc(C(N)=O)ccc1=O [Nudifloramide]
- Percentage of motility inhibition 0 h [1]: 0%
- Percentage of motility inhibition 24 h [2]: 0%

Compound: COc1cc(C2Oc3ccc(-c4cc(=O)c5c(O)cc(O)cc5o4)cc3OC2CO)ccc1O (racemic) [(Rac)‐Hydnocarpin]
- Percentage of motility inhibition 0 h [1]: 7%
- Percentage of motility inhibition 24 h [2]: 0%

Compound: OCC1=C[C@@H](O)[C@]2(O[C@@H]3O[C@H](CO)[C@@H](O)[C@H](O)[C@H]3O)C=CO[C@@H](O[C@@H]3O[C@H](CO)[C@@H](O)[C@H](O)[C@H]3O)[C@H]12 [Melittoside]
- Percentage of motility inhibition 0 h [1]: 0%
- Percentage of motility inhibition 24 h [2]: 4%

Compound: C=C1C(=O)O[C@@H]2/C=C(\C)[C@@H](OC(C)=O)C/C=C(\COC(C)=O)C[C@@H](OC(=O)/C(C)=C/CO)[C@@H]12 [Eupalinolide B]
- Percentage of motility inhibition 0 h (110 µM): 0%
- Percentage of motility inhibition 24 h (110 µM): 0%

Compound: Oc1cnc2c(O)cccc2c1 [Jineol]
- Percentage of motility inhibition 0 h [1]: 0%
- Percentage of motility inhibition 24 h [2]: 0%

Compound: COc1ccc(-c2cc(=O)c3c(O)cc(O[C@@H]4O[C@H](CO)[C@@H](O)[C@H](O)[C@H]4O)cc3o2)cc1 [Tilianin]
- Percentage of motility inhibition 0 h [1]: 13%
- Percentage of motility inhibition 24 h [2]: 3%
